Reference: publication PMC6770857, “Unraveling Binding Mechanism of Alzheimer’s Drug Rivastigmine Tartrate with Human Transferrin: Molecular Docking and Multi-Spectroscopic Approach towards Neurodegenerative Diseases” (Biomolecules, 2019)
Where a name gives a salt, the structure may show the parent alone.

Target: T1, human transferrin (hTf) (Homo sapiens, UniProt P02787)
T1 construct: gene TF
Test: intrinsic fluorescence quenching, modified Stern-Volmer
Assay type: binding
Settings: pH 7.4, 50 mM sodium phosphate, 301 K, 4 uM hTf, excitation 280 nm, n = 0.99; double-log
Excerpt: intrinsic fluorescence quenching, modified Stern-Volmer on human transferrin (hTf)

T1 sequence (P02787 20-698): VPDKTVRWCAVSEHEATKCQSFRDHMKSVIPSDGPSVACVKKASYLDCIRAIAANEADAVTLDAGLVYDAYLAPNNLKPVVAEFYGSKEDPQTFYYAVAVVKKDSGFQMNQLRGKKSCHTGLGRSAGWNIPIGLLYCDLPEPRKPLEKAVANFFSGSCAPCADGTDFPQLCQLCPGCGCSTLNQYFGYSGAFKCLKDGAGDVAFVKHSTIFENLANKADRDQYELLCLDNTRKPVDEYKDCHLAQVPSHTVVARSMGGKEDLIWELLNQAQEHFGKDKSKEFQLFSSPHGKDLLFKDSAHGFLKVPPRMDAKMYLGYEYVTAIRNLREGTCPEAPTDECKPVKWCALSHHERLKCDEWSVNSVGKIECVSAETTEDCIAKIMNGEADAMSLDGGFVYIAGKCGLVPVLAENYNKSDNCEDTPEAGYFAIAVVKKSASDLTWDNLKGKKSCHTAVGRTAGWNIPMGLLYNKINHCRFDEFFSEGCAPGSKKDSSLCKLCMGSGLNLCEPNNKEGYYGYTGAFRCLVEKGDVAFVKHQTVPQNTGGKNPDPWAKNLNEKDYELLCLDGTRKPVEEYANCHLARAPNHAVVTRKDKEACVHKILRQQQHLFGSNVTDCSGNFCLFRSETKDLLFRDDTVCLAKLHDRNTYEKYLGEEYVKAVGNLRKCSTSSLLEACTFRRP

With `CCN(C)C(=O)Oc1cccc([C@H](C)N(C)C)c1` [Rivastigmine tartrate] the “K (10^4 M^-1)” value was 5.3 10^4 M^-1.
